Assay results taken from patent publication US20160220587A1, “VITAMIN D COMPLEXES WITH DE-VDBP AND AN UNSATURATED FATTY ACID, AND THEIR USE IN THERAPY” (priority 2013, published 2016).
Where no end group is shown, it is not given here.

Tests used:
VDBP = molecular target: T1, VDBP (Homo sapiens, UniProt P02774); conditions: relative to vitamin D3; Am J Kidney Dis, 1998; 32:S25-39; cited from earlier work
T1 sequence (P02774 17-474): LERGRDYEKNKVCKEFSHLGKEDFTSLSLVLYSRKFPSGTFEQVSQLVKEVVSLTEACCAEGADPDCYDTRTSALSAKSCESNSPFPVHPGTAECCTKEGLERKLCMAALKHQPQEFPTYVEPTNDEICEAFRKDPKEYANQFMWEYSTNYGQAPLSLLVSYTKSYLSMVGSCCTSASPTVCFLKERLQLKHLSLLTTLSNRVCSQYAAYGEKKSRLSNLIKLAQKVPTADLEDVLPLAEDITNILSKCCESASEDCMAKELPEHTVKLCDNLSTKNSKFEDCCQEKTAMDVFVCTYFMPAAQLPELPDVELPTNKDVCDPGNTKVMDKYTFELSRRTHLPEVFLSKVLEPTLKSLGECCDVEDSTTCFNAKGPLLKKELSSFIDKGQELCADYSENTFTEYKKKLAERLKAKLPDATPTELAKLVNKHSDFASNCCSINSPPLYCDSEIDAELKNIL

[1] = system: MCF-7 human breast cancer cell; test: MCF-7 cell proliferation (Calbiochem Rapid Cell Proliferation Kit); format: cell-based; conditions: for Absorbance units (×10^3), cell proliferation: control (no addition) 450 ± 21
Protocol: The biological activity of the molecules and the multimolecular complexes described in the preceding sections was tested in an in vitro system (MCF-7 human breast cancer cell cultures) that is routinely used to assess the biological activity of vitamin D3 and of the other components of the vitamin D axis (Evid Based Complement Alternat Med. 2012; 2012:310872. Oncol Rep. 2012 December; 28(6):2131-7. Anticancer Res. 2012 March; 32(3):739-46). Human breast carcinoma cells MCF-7 were challenged with different concentration of vitamin D3, de-VDBP, and [vitamin D3/de-VDBP/oleic acid]. […] The same level of inhibition, however, could be achieved with 1000 fold less vitamin D3 when it was complexed with de-VDBP and oleic acid.

C=C1/C(=C\C=C2/CCC[C@]3(C)[C@@H]([C@H](C)OCCC(C)(C)O)CC[C@@H]23)C[C@@H](O)C[C@@H]1O [22-oxacalcitriol]
VDBP affinity (VDBP): low

[2H]C([2H])=C1/C(=C([2H])\C=C2/CCC[C@]3(C)[C@@H]([C@H](C)CCCC(C)(C)O)CC[C@@H]23)C[C@@H](O)C[C@@H]1O [Vitamin D3, 1α,25-Dihydroxyvitamin D3 (6,19,19-d3)]
Absorbance units (×10^3), cell proliferation ([1]; Vitamin D3 1 nM): 425 ± 10 Absorbance units (×10^3) | Absorbance units (×10^3), cell proliferation ([1]; Vitamin D3 1 uM): 55 ± 10 Absorbance units (×10^3) | Concentration giving maximal inhibition of MCF-7 proliferation ([1]; very high, non-physiological concentration): 1 µM

C=C1/C(=C\C=C2/CCC[C@]3(C)[C@@H]([C@H](C)/C=C/[C@@H](O)C4CC4)CC[C@@H]23)C[C@@H](O)C[C@@H]1O [calcipotriene]
VDBP affinity (VDBP): low

de-VDBP: vitamin D binding protein de-glycosylated at position Thr 420 by sequential removal of sialic acid and galactose (DSTTCFNAKGPLLKKELSSFIDKGQELC; cysteine pairing not given here; also: de-glycosylated at Thr 420 by removal of sialic acid and galactose; listed as Homo sapiens)
Absorbance units (×10^3), cell proliferation ([1]; de-VDBP 1 ng/ml): 395 ± 37 Absorbance units (×10^3)

B1: [Vitamin D3 1 nM/de-VDBP 1 ng/ml/oleic acid 1/1]: trimeric complex of vitamin D3 and oleic acid bound to de-VDBP via hydrophobic interactions (protein, UniProt P02774 17-474, looked up)
Vitamin D-binding protein: LERGRDYEKNKVCKEFSHLGKEDFTSLSLVLYSRKFPSGTFEQVSQLVKEVVSLTEACCAEGADPDCYDTRTSALSAKSCESNSPFPVHPGTAECCTKEGLERKLCMAALKHQPQEFPTYVEPTNDEICEAFRKDPKEYANQFMWEYSTNYGQAPLSLLVSYTKSYLSMVGSCCTSASPTVCFLKERLQLKHLSLLTTLSNRVCSQYAAYGEKKSRLSNLIKLAQKVPTADLEDVLPLAEDITNILSKCCESASEDCMAKELPEHTVKLCDNLSTKNSKFEDCCQEKTAMDVFVCTYFMPAAQLPELPDVELPTNKDVCDPGNTKVMDKYTFELSRRTHLPEVFLSKVLEPTLKSLGECCDVEDSTTCFNAKGPLLKKELSSFIDKGQELCADYSENTFTEYKKKLAERLKAKLPDATPTELAKLVNKHSDFASNCCSINSPPLYCDSEIDAELKNIL
modifications: deglycosylated; vitamin D3 and oleic acid bound
Absorbance units (×10^3), cell proliferation ([1]; Vitamin D3 1 nM / de-VDBP 1 ng/ml / oleic acid ratio 1/1): 55 ± 9 Absorbance units (×10^3) | Fold less vitamin D3 needed for the same level of inhibition ([1]; versus 1 uM vitamin D3 alone): 1000 fold
